A short description of data set [1]: collision cross section (TIMS, N2 drift gas) of the primary ion; higher = larger gas-phase ion size.
The nature of data set [2]: reversed-phase LC retention time (C18, 15 min MeOH gradient); higher = more hydrophobic / later elution.
Where [3] appears, read: ionization mode: ESI+, ion species: [M+H]+.
The mark [4] stands for this setting: ionization mode: ESI-, ion species: [M-H]-.
Setting [5] is: ionization mode: ESI+, ion species: [M]+.

Structures can show the parent of a compound that is named as a salt.

Regarding `C[C@]12CCC(=O)C=C1CC[C@@H]1[C@@H]2[C@@H](O)C[C@]2(C=O)[C@@H](C(=O)CO)CC[C@@H]12` [Aldosterone], the collision cross section in data set [1] (setting [3]) came to 204.03 Å²; in data set [1] (setting [4]) it was 182.17 Å². Also, the “reversed-phase LC retention time” value in data set [2] (setting [3]) amounted to 16.5 min; in data set [2] (setting [4]) it was 11.9 min.
`O=C(/C=C/C=C/c1ccc2c(c1)OCO2)N1CCCCC1` [Piperine] yielded a collision cross section in data set [1] (setting [3]) of 177.09 Å². Besides, in data set [2] (setting [3]), the “reversed-phase LC retention time” value was 14.6 min.
`Cc1cnc2ccc3c(nc(N)n3C)c2n1` [2-Amino-3,8-dimethylimidazo-[4,5-f]quinoxaline (MeIQx)]: the collision cross section turned out to be 147.79 Å² in data set [1] (setting [3]) and 147.68 Å² in data set [1] (setting [4]). For the same molecule, the “reversed-phase LC retention time” value was found to be 7.67 min in data set [2] (setting [3]) and 9.09 min in data set [2] (setting [4]).
For `C[C@]12CC[C@@H]3c4ccc(O)cc4CC[C@H]3[C@@H]1CC[C@H]2O` [17-alpha-Estradiol], in data set [1] (setting [4]), the collision cross section came to 173.91 Å². Besides, the “reversed-phase LC retention time” value in data set [2] (setting [4]) came to 14.5 min.
For `CC1(C)[C@@H](O)CC[C@]2(C)[C@H]3C(=O)C=C4[C@@H]5C[C@@](C)(C(=O)O)CC[C@]5(C)CC[C@@]4(C)[C@]3(C)CC[C@@H]12` [Enoxolone], the collision cross section in data set [1] (setting [3]) is reported as 216.71 Å²; in data set [1] (setting [4]), 224.72 Å². In addition, the “reversed-phase LC retention time” value in data set [2] (setting [3]) was 17.5 min; in data set [2] (setting [4]), 16.6 min.
On the same counts, the results for `C[C@@H]1C[C@H]2[C@@H]3CCC4=CC(=O)C=C[C@]4(C)[C@@]3(Cl)[C@@H](O)C[C@]2(C)[C@@]1(OC(=O)c1ccco1)C(=O)CCl` [Mometasone fuorate] are 217.59 Å², 214.51 Å², 15.2 min and 15.7 min.
For `C=CCC1(C(C)CCC)C(=O)NC(=O)NC1=O` (stereo not drawn) [Secobarbital], in data set [1] (setting [4]), the collision cross section came to 153.23 Å². Moreover, the “reversed-phase LC retention time” value in data set [2] (setting [4]) was 12.7 min.
For `CCNC(=O)[C@@H](C)OC(=O)Nc1ccccc1` [Carbetamide], the collision cross section in data set [1] (setting [3]) was found to be 155.79 Å². In addition, the “reversed-phase LC retention time” value in data set [2] (setting [3]) worked out at 11 min.
Taken in the same sequence, the figures for `Cc1cc(=O)oc2cc(N)ccc12` [7-Amino-4-methylcoumarin] were 131.77 Å² and 9.22 min.
On the same counts, the results for `C#CCOS(=O)OC1CCCCC1Oc1ccc(C(C)(C)C)cc1` (stereo not drawn) [Propargite] are 195.16 Å² and 17.4 min.
For `c1ccc2c(c1)[nH]c1ccncc12` [5-Carboline], the collision cross section came out at 132.8 Å² in data set [1] (setting [3]) and 129.23 Å² in data set [1] (setting [4]). The “reversed-phase LC retention time” value in data set [2] (setting [3]) was found to be 7.64 min; in data set [2] (setting [4]), 11.6 min.
`CCCc1cc(=O)[nH]c(=S)[nH]1` [6-Propyl-2-thiouracil] yielded a collision cross section in data set [1] (setting [4]) of 133.88 Å². In addition, the “reversed-phase LC retention time” value in data set [2] (setting [4]) came out at 6.69 min.
`CCCCCCCCCC[N+](C)(C)CCCCCCCCCC` [Didecyldimethylammonium] came in with a collision cross section in data set [1] (setting [5]) of 211.39 Å². Besides, the “reversed-phase LC retention time” value in data set [2] (setting [5]) came out at 17.3 min.
Consider `CCC(C)C(=O)OC1CC(O)C=C2C=CC(C)C(CCC(O)CC(O)CC(=O)O)C21` (stereo not drawn) [Pravastatin], for which the collision cross section in data set [1] (setting [4]) was found to be 203.46 Å². Besides, in data set [2] (setting [4]), the “reversed-phase LC retention time” value stood at 12.1 min.
Regarding `Cc1ccc(OS(=O)(=O)[O-])cc1` [p-Tolyl Sulfate], the collision cross section in data set [1] (setting [4]) worked out at 135.45 Å². In addition, the “reversed-phase LC retention time” value in data set [2] (setting [4]) was determined as 7.34 min.
For `N#C/N=C1/SCCN1Cc1ccc(Cl)nc1` [Thiacloprid], the collision cross section in data set [1] (setting [3]) worked out at 158.43 Å²; in data set [1] (setting [4]), 153.51 Å². The “reversed-phase LC retention time” value in data set [2] (setting [3]) was determined as 9.94 min; in data set [2] (setting [4]) it was 10 min.
`CC1(C)[C@@H](O[C@H]2O[C@H](C(=O)O)[C@@H](O)[C@H](O)[C@H]2O[C@@H]2O[C@H](C(=O)O)[C@@H](O)[C@H](O)[C@H]2O)CC[C@]2(C)[C@H]3C(=O)C=C4[C@@H]5C[C@@](C)(C(=O)O)CC[C@]5(C)CC[C@@]4(C)[C@]3(C)CC[C@@H]12` [Glycyrrhizic acid] showed a collision cross section in data set [1] (setting [4]) of 282.7 Å². Further, in data set [2] (setting [4]), the “reversed-phase LC retention time” value worked out at 11.8 min.
Taken in the same sequence, the figures for `COc1cc2ccc(=O)oc2cc1O` [Scopoletin] were 133.5 Å² and 7.44 min.
For `Cc1cc(Cl)ccc1/N=C/N(C)C` [Chlordimeform], in data set [1] (setting [3]), the collision cross section turned out to be 145.93 Å². Besides, the “reversed-phase LC retention time” value in data set [2] (setting [3]) came to 8.19 min.
Taken in the same sequence, the figures for `CN1COCN(Cc2cnc(Cl)s2)/C1=N/[N+](=O)[O-]` [Thiamethoxam] were 159.96 Å² and 7.66 min.
Taken in the same sequence, the figures for `CC(C)N(C(=O)COc1nnc(C(F)(F)F)s1)c1ccc(F)cc1` [Flufenacet] were 178.11 Å² and 14.9 min.
Taken in the same sequence, the figures for `CO/N=C(/C(=O)OC)c1ccccc1CO/N=C(\C)c1cccc(C(F)(F)F)c1` [Trifloxystrobin] were 188.81 Å² and 16.3 min.
Consider `O=C(O)COCCN1CCN(C(c2ccccc2)c2ccc(Cl)cc2)CC1` (stereo not drawn) [Cetirizine], for which the collision cross section in data set [1] (setting [3]) was determined as 200.88 Å²; in data set [1] (setting [4]), 195.01 Å². Further, the entries for the “reversed-phase LC retention time” value in data set [2] (setting [3]) and in data set [2] (setting [4]) were 13.5 min and 14.6 min, respectively.
Taken in the same sequence, the figures for `O=C(Nc1ccc(F)cc1)c1cccc(Oc2cccc(C(F)(F)F)c2)n1` [Picolinafen] were 189.81 Å², 186.89 Å², 16.8 min and 17.2 min.
In data set [1] (setting [4]), `O=S(=O)(O)C(F)(F)C(F)(F)C(F)(F)C(F)(F)F` [Perfluorobutanesulfonic acid] registered a collision cross section of 132.6 Å². Moreover, in data set [2] (setting [4]), the “reversed-phase LC retention time” value was 11.3 min.
With `Cc1ccc(OP(=O)(Oc2ccc(C)cc2)Oc2ccc(C)cc2)cc1` [Tricresylphosphate], in data set [1] (setting [3]), the collision cross section was 190.01 Å². Besides, the “reversed-phase LC retention time” value in data set [2] (setting [3]) amounted to 17.2 min.

Source of the values: the supplement of paper PMC12613149.
